Data as given in ChEMBL document CHEMBL5137073, “Optimization and Mechanistic Investigations of Novel Allosteric Activators of PKG1α” (J Med Chem, 2022).
≈ marks a conversion by molar mass, not a printed value.

Key:
[1] = target: T1, cGMP-dependent protein kinase 1 (Homo sapiens, UniProt Q13976); assay: Activation of basal state recombinant PKG1alpha (unknown origin) using Glass-tide peptide substrate incubated for 30 mins followed by ATP addition and measured after 2 hr by ADP-GLO Max Assay
T1 sequence (Q13976 whole entry): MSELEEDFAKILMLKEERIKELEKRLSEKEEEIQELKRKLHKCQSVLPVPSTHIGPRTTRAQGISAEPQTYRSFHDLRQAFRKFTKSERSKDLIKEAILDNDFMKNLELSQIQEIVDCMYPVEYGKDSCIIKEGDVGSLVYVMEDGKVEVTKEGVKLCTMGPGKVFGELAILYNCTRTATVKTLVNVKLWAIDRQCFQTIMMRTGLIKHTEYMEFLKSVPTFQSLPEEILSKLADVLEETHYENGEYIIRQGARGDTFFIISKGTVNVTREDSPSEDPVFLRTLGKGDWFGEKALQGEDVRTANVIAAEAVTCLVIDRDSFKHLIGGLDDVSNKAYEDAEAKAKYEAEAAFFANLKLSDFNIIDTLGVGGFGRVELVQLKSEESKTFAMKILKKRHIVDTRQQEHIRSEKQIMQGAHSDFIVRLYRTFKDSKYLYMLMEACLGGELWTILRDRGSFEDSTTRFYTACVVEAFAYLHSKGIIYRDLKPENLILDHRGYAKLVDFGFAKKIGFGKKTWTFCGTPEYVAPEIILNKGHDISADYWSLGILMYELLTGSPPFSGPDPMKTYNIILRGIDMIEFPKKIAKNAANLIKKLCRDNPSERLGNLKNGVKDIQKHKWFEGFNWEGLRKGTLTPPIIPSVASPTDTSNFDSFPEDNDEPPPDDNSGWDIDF

[2] = Solubility of compound at pH 7; type: physicochemical; conditions: buffer
[3] = target: T1, cGMP-dependent protein kinase 1
Description: Activation of PKG1alpha in human HEK293 cells stably expressing VASP assessed as VSAP phosphorylation at Ser 239 incubated for 45 mins by HTRF assay

[4] = target: T1, cGMP-dependent protein kinase 1; assay: Activation of cGMP induced partially activated state recombinant PKG1alpha (unknown origin) using Glass-tide peptide substrate incubated for 30 mins followed by ATP addition and measured after 2 hr in presence of cGMP by ADP-GLO Max Assay
[5] = Apparent permeability in dog MDCK-II cells; type: ADME, cell-based, Canis lupus familiaris
[6] = Solubility of compound in FaSSIF; type: physicochemical
[7] = Protein binding in Wistar Han male rat plasma at 1 mg/kg, iv or 5 mg/kg, po and measured upto 8 hrs post dose by LC-MS/MS analysis; type: ADME, organism-based; conditions: read-out: PPB
[8] = MRT in Wistar Han male rat plasma at 1 mg/kg, iv and measured upto 8 hrs post dose by LC-MS/MS analysis; type: ADME, organism-based
[9] = Clearance in Wistar Han male rat plasma at 1 mg/kg, iv or 5 mg/kg, po and measured upto 8 hrs post dose by LC-MS/MS analysis; type: ADME, organism-based
[10] = Oral bioavailability in Wistar Han male rat plasma at 5 mg/kg and measured upto 8 hrs by LC-MS/MS analysis; type: ADME, organism-based
[11] = Volume of distribution in Wistar Han male rat plasma at 1 mg/kg, iv or 5 mg/kg, po and measured upto 8 hrs post dose by LC-MS/MS analysis; type: ADME, organism-based
[12] = Solubility of compound at pH 2; type: physicochemical; conditions: buffer
[13] = Clearance in Wistar Han male rat plasma at 0.05 mg/kg, iv and measured upto 8 hrs post dose by LC-MS/MS analysis; type: ADME, organism-based
[14] = Protein binding in Wistar Han male rat plasma at 0.05 mg/kg, iv and measured upto 8 hrs post dose by LC-MS/MS analysis; type: ADME, organism-based; conditions: read-out: PPB (converted)
[15] = MRT in Wistar Han male rat plasma at 0.05 mg/kg, iv and measured upto 8 hrs post dose by LC-MS/MS analysis; type: ADME, organism-based
[16] = Volume of distribution in Wistar Han male rat plasma at 0.05 mg/kg, iv and measured upto 8 hrs post dose by LC-MS/MS analysis; type: ADME, organism-based

EC50 [1] | EC50 [4] | Structure (SMILES) | also measured
> 200 µM | 47 µM | OC[C@@H](O[C@H]1CCCN(Cc2ncc[nH]2)[C@H]1c1ccccc1)c1cc(Cl)cc(Cl)c1 | solubility [2]: 120 µM (≈ 53.6 µg/mL); EC50 [3]: > 164 µM; Papp [5]: 2 ×10⁻⁶ cm/s
77 µM | – | O=C(O)c1ccc(CN2CCC[C@H](O[C@H](CO)c3cc(Cl)cc(Cl)c3)[C@@H]2c2ccccc2)cc1 | solubility [2]: 85 µM (≈ 42.5 µg/mL)
> 200 µM | > 200 µM | Cc1cc(C(=O)O)ccc1C(=O)N1CCC[C@H](O[C@H](CO)c2cc(Cl)cc(Cl)c2)[C@@H]1c1ccccc1 | –
> 200 µM | 12 µM | O=C(O)C12CC(CN3CCC[C@H](O[C@H](CO)c4cc(Cl)cc(Cl)c4)[C@@H]3c3ccccc3)(C1)C2 | –
> 200 µM | 43 µM | Cc1cc(C(=O)O)ccc1CN1CCC[C@@]2(C[C@@H](c3ccccc3)CO2)[C@@H]1c1ccccc1 | –
> 200 µM | 169 µM | Cc1cc(C(=O)O)ccc1CN1C(=O)CC[C@H](OCc2cc(Cl)cc(Cl)c2)[C@@H]1c1ccccc1 | –
– | – | Cc1cc(C(=O)O)ccc1CN1CCC[C@H](O[C@H](CO)c2cc(Cl)cc(Cl)c2)[C@@H]1c1ccccc1 | solubility [6]: 36 µM (≈ 18.5 µg/mL); fraction unbound at 8 h [7]: 0.001; MRT [8]: 2.3 h; solubility [2]: 157 µM (≈ 80.8 µg/mL); clearance [9]: 2.5 mL/min/kg; bioavailability [10]: 62%; Papp [5]: 22 ×10⁻⁶ cm/s; Vd [11]: 0.33 L/kg; solubility [12]: 196 µM (≈ 101 µg/mL)
– | – | O=C(O)c1ccc(CN2CCC[C@H](O[C@H](CO)c3cc(Cl)cc(Cl)c3)[C@@H]2c2ccccc2)c([N+](=O)[O-])c1 | clearance [13]: 8.1 mL/min/kg; solubility [6]: 112 µM (≈ 61.1 µg/mL); fraction unbound at 8 h [14]: < 0.001; solubility [2]: 110 µM (≈ 60 µg/mL); MRT [15]: 0.9 h; Vd [16]: 0.45 L/kg; Papp [5]: 10 ×10⁻⁶ cm/s; solubility [12]: 172 µM (≈ 93.8 µg/mL)
> 200 µM | 50 µM | Cc1cc(C(=O)O)ccc1CN1CCC[C@H](O[C@H](CO)c2ccnc(Cl)c2)[C@@H]1c1ccccc1 | –
– | – | Nc1cc(C(=O)O)ccc1CN1CCC[C@H](O[C@H](CO)c2cc(Cl)cc(Cl)c2)[C@@H]1c1ccccc1 | clearance [13]: 4.4 mL/min/kg; solubility [6]: 137 µM (≈ 70.6 µg/mL); fraction unbound at 8 h [14]: 0.002; solubility [2]: 78 µM (≈ 40.2 µg/mL); MRT [15]: 1.9 h; Vd [16]: 0.5 L/kg; Papp [5]: 21 ×10⁻⁶ cm/s; solubility [12]: 126 µM (≈ 64.9 µg/mL)
130 µM | 36 µM | Cc1cc(C(=O)O)ccc1CN1C(C)CC[C@H](O[C@H](CO)c2cc(Cl)cc(Cl)c2)[C@@H]1c1ccccc1 (stereo not given in full) | –
> 200 µM | 14 µM | CC(=O)NS(=O)(=O)c1ccc(CN2CCC[C@H](O[C@H](CO)c3cc(Cl)cc(Cl)c3)[C@@H]2c2ccccc2)cc1 | –
185 µM | 133 µM | Cc1cc(C(=O)O)ccc1CN1CC[C@H](OC(CO)c2cc(Cl)cc(Cl)c2)[C@@H]1c1ccccc1 (stereo not given in full) | –
– | 18 µM | Cc1cc(C(=O)O)ccc1CN1CCC[C@H](O[C@H](CO)c2cc(Cl)cc(Cl)c2)[C@@H]1c1ccc(F)cc1 | –
– | 12 µM | Cc1cc(C(=O)O)ccc1CN1CCC[C@H](O[C@H](CO)c2cc(Cl)cc(Cl)c2)[C@@H]1c1cccc(F)c1 | –
> 200 µM | 81 µM | COc1cccc([C@@H](CO)O[C@H]2CCCN(Cc3ccc(C(=O)O)cc3C)[C@H]2c2ccccc2)c1 | –
> 200 µM | 25 µM | Cc1cc(C(=O)O)ccc1CN1CCC[C@H](O[C@H](CO)c2ccccc2)[C@@H]1c1ccccc1 | –
– | 18 µM | Cc1cc(C(=O)O)ccc1C(C)N1CCC[C@H](O[C@H](CO)c2cc(Cl)cc(Cl)c2)[C@@H]1c1ccccc1 (stereo not given in full) | –
> 200 µM | 65 µM | Cc1cc(C(=O)O)ccc1CN1CCC[C@H](O[C@H](CO)c2cc(Cl)cc(Cl)c2)[C@@H]1C1CCCCC1 | –
121 µM | 17 µM | Cc1cc(C(=O)O)ccc1CN1CCC[C@H](OC(c2cc(Cl)cc(Cl)c2)C(C)(C)O)[C@@H]1c1ccccc1 (stereo not given in full) | –
– | 47 µM | Cc1cc(C(=O)O)ccc1CN1CCC[C@H](O[C@H](CO)c2cc(Cl)cc(Cl)c2)[C@@H]1c1cccnc1 (racemic) | –
